According to article PMC11444201, “A Novel Tetrahydroacridine Derivative with Potent Acetylcholinesterase Inhibitory Properties and Dissociative Capability against Aβ42 Fibrils Confirmed by In Vitro Studies” (International Journal of Molecular Sciences, 2024):
Where a name gives a salt, the structure may show the parent alone.

How the values were obtained:
[1] = biological target: T1, amyloid β 1-42 (Aβ42) fibrils (Homo sapiens, UniProt P05067); assay: thioflavin T fluorescence fibril dissociation assay (DC50), supported by AFM; format: biochemical
T1 construct: gene APP; amyloid β 1-42 peptide, preformed fibrils

[2] = biological target: acetylcholinesterase (AChE) (Electrophorus electricus, UniProt O42275); assay: modified Ellman spectrophotometric assay with isolated enzyme; format: biochemical
Chain of acetylcholinesterase (AChE) (O42275 24-633): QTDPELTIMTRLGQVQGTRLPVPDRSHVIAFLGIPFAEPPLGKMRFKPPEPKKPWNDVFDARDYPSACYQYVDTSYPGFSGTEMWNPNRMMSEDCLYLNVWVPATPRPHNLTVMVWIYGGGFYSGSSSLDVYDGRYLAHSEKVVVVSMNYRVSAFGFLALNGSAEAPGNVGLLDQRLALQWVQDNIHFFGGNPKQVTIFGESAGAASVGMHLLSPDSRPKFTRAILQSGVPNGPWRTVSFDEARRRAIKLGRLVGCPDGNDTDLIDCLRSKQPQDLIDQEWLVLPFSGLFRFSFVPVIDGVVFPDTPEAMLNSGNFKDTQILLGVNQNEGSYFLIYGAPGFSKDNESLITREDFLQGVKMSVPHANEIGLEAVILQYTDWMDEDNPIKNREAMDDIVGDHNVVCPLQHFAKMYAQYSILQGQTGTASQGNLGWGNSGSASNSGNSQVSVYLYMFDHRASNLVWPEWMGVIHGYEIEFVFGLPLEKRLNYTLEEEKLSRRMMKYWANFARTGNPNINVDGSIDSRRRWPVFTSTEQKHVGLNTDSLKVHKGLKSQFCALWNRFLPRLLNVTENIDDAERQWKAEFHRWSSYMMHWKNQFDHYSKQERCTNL

T1 sequence (P05067 672-713): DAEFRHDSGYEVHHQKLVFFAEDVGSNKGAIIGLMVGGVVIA

Compound `Clc1cc2c3c(c4c(nc3c1)CCCC4)NCCN2` [CHDA, 6-chloro-1,2,3,4,9,10,11,12-octahydro-[1,4]-diazepine-[5,6,7-kl]-acridine Monohydrochloride] has a DC50 [1] of 70.8 µM and an IC50 [2] of 18.5 ± 5.68 nM.
